Assay results from publication PMC11784013, “Potassium molybdate blocks APN-dependent coronavirus entry by degrading receptor via PIK3C3-mediated autophagy” (Journal of Virology, 2024).
“Also recorded” adds a separate entry of the source.

How the values were obtained:
[1] = test system: TGEV; assay: Time-of-drug-addition assay with TGEV in ST cells (inactivation, adsorption, penetration, replication, release); format: cell-based, transmissible gastroenteritis virus
Protocol: Fig 4 PM dampens TGEV infection by mainly blocking viral entry. (A) Inactivated assay. TGEV (0.1 MOI, red bar) and PM (10 mΜ) or H2O (blue bar) were mixed and incubated at 37°C for 3 and 5 h, respectively, and then the mixtures were added into ST cells. After incubation at 37°C for another 1 h, culture supernatants were replaced with fresh culture medium for 17 h at 37°C. After washing with PBS, the mRNA levels and viral load of TGEV N protein were measured by RT-qPCR. (B) Adsorption assay. ST cells were pretreated with PM (10 mΜ) or H2O (blue bar) for 1 h at 37°C, and then the media were replaced by a mixture of PM (10 mΜ) or H2O and TGEV (5 MOI, red bar) for 0.5 or 1 h at 4°C. After washing with PBS, the genomic RNA levels and viral load of TGEV N protein were measured by RT-qPCR. (C and D) Penetration assay. ST cells were infected with 5 MOI TGEV (red bar) for 1 h at 4°C and were then treated with PM (10 mΜ) or H2O (blue bar) for 1 or 2 h at 37°C after washing with PBS. The cell samples were washed using sodium citrate buffer and tested through RT-qPCR (C) and IFA (D), scale bar: 50 µm/5 µm. (E) Replication assay. ST cells infected with 5 MOI TGEV (red bar) were incubated at 37°C for 3 h and washed with sodium citrate buffer. Then, cells were treated with PM (10 mΜ) or H2O (blue bar) for 5 or 13 h. The cells were harvested and examined by RT-qPCR. (F) Release assay. ST cells were infected with 5 MOI TGEV (red bar) for 16 h and then PM (10 mΜ) or H2O (blue bar) was added to the cells for 1 or 2 h. qRT-PCR was used to test the mRNA levels and viral load of the virus in the supernatant. Results are presented as mean ± SD of data from three independent experiments. ***, P ≤ 0.001; ns, no significance. […]
red bar) and PM (10 mΜ) or H2O (blue bar) were mixed and incubated at 37 °C for 3 h and 5 h respectively and then the mixtures were added into ST cells. After incubation at 37°C for another 1 h, culture supernatants were replaced with fresh culture medium for 17 h at 37°C. Viral titers were detected by TCID50. (B) Release assay. ST cells were infected with 0.1 MOI TGEV (red bar) for 16 h and then PM (10 mΜ) or H2O (blue bar) was added to the cells for 1 h or 2 h. TCID50 was used to test the viral titers in supernatant. Results are presented as mean ± SD of data from three independent experiments ns, no significant.
(also on this page, place not known: 3h 5h 0 2 4 6 8 H2O PM log10 TCID50/ml ns ns 0 2 4 6 8 H2O PM log10 TCID50/ml ns ns -3h-5h 17h 18h CollectedPM/H2O) […]

[2] = format: in vivo; conditions: piglets, oral PM 100 mg/kg
Protocol: Neonatal pigs spontaneously delivered from sows were confirmed to be negative for TGEV by RT-qPCR and enzyme-linked immunosorbent assay. For the cytotoxicity and pharmacokinetic parameters of the PM, three piglets were orally administered PM (100 mg/kg), and the serum was collected by venipuncture at 0, 1, 2, 4, 6, 8, 10, 12, 16, and 24 h after oral administration of PM for cytotoxicity assays and pharmacokinetic parameter determination. For antiviral animal experiments, piglets were randomly separated into four groups: the mock group ([3]), TGEV group ([3]), TGEV-PM-therapy group ([3]), and TGEV-PM-prevention group ([3]). For the TGEV group, neonatal pigs were orally administered 1.245 × 10^8 PFU TGEV Miller for 24 h. In addition, piglets in the TGEV-PM therapy group were orally infected with 1.245 × 10^8 PFU TGEV Miller and then treated with PM (100 mg/kg). For the TGEV-PM-prevention group, three neonatal pigs were orally pretreated with PM (100 mg/kg) for 24 h and subsequently inoculated with 1.245 × 10^8 PFU TGEV Miller for 24 h. The body weights of all piglets were recorded, and anal swabs were collected every 12 h. At 24 hpi, all pigs were euthanized, and intestinal tissues were collected for RT-qPCR, western blot, IFA, and pathological examination. All animals were handled in strict accordance with good animal practice according to the Animal Ethics Procedures and Guidelines of the People’s Republic of China, and the study was approved by The Animal Administration and Ethics Committee of Lanzhou Veterinary Research Institute, Chinese Academy of Agricultural Sciences (Permit No. LVRIAEC-2020-030).
Fig. S9. Cytotoxicity assay and t1/2 detection of PM in piglets. (A) The serum of piglets orally administered PM were collected at 1, 2, 4, 6, 8, 10, 12, 16 and 24 hours respectively and AST, CK and CREA level in those sera were measured by biochemical parameters. (B) PM concentrations at indicated times in piglets were determined by ICP-MS. Results are presented as mean ± SD of data from three independent experiments ns, no significant.

In the case of `[K+].[K+].[O]=[Mo](=[O])([O-])[O-]` [PM, potassium molybdate], the “direct inactivation of TGEV (inactivated assay)” value ([1]; PM 10 mM mixed with TGEV 0.1 MOI at 37°C for 3 and 5 h, RT-qPCR, TCID50) is reported as “cannot inactivate TGEV and affect viral release”, the TGEV release ([1]; ST cells, PM 10 mM added 16 h after infection for 1 or 2 h, RT-qPCR, TCID50 of supernatant) is reported as “cannot inactivate TGEV and affect viral release; also recorded: uninfluential in virus adsorption and release” and the TGEV adsorption ([1]; ST cells, PM 10 mM, TGEV 5 MOI, 0.5 or 1 h at 4°C, RT-qPCR) is reported as “uninfluential in virus adsorption and release”. For the same compound, the “TGEV entry (penetration assay)” value ([1]; ST cells, PM 10 mM, TGEV 5 MOI, 1 or 2 h at 37°C, RT-qPCR and IFA) was “significantly inhibited TGEV entry”, the TGEV replication ([1]; ST cells, PM 10 mM, TGEV 5 MOI, PM for 5 or 13 h from 3 h after infection, RT-qPCR) was “moderately restricted viral replication” and the t1/2 [2] was “approximately 12 h”. The “AUC(0-t)” value ([2]; serum, mean ± SD) was 975.253 ± 33.380 mg·h/L, the “AUC(0-∞)” value ([2]; serum, mean ± SD) was 1,341.054 ± 21.475 mg/L*h and the CLz/F ([2]; serum, mean ± SD) was 0.074 ± 0.001 L/h/kg. For the same compound, the Cmax ([2]; serum, mean ± SD) was 62.645 ± 0.677 mg/L, the “MRT(0-t)” value ([2]; serum, mean ± SD) was 10.735 ± 0.155 h and the “MRT(0-∞)” value ([2]; serum, mean ± SD) was 19.027 ± 1.388 h. It also gave a Tmax ([2]; serum, mean ± SD) of 7.333 ± 2.309 h, a Vz/F ([2]; serum, mean ± SD) of 1.267 ± 0.093 L/kg and a t1/2z ([2]; serum, mean ± SD) of 11.784 ± 0.954 h.
